Calls of active or inactive are those of the source. The calls are words filed in the database; no cut-off is given here.
Key:
[1] = target: High affinity nerve growth factor receptor (Homo sapiens) (UniProt P04629); assay: Inhibition of human TrkA (440 to end residues) using KKKSPGEYVNIEFG as substrate measured after 40 mins in presence of [gamma33P]ATP by scintillation counting method; set-up: scale not given: the % may be the effect or the level left
[2] = target: TRAF2 and NCK-interacting protein kinase (Homo sapiens) (UniProt Q9UKE5); assay: Inhibition of human TNIK (1 to 367 residues) using RLGRDKYKTLRQIRQ as substrate measured after 40 mins in presence of [gamma33P]ATP by scintillation counting method; set-up: scale not given: the % may be the effect or the level left
[3] = target: Mitogen-activated protein kinase 13 (Homo sapiens) (UniProt O15264); assay: Inhibition of recombinant full-length human SAPK4 assessed as residual activity at 10 uM using myelin basic protein as substrate measured after 40 mins in presence of [gamma33P]ATP by scintillation counting method
[4] = target: Interferon-induced, double-stranded RNA-activated protein kinase (Homo sapiens) (UniProt P19525); assay: Inhibition of recombinant human PKR (252 to end residues) assessed as residual activity at 10 uM using RSRSRSRSRSRSRSR as substrate measured after 40 mins in presence of [gamma33P]ATP by scintillation counting method
[5] = target: Protein kinase C iota type (Homo sapiens) (UniProt P41743); assay: Inhibition of recombinant full-length human PKCiota assessed as residual activity at 10 uM using ERMRPRKRQGSVRRRV as substrate measured after 40 mins in presence of [gamma33P]ATP by scintillation counting method
[6] = system: Ribosomal protein S6 kinase beta-1 (Homo sapiens), P23443 [T412E]; assay: Inhibition of recombinant human p70S6K T412E mutant (1 to 421 residues) assessed as residual activity at 10 uM using KKRNRTLTV as substrate measured after 40 mins in presence of [gamma33P]ATP by scintillation counting method
[7] = system: Hepatocyte growth factor receptor (Homo sapiens), P08581 [M1250T]; assay: Inhibition of recombinant human MET A1209G/V1290L/M1268T mutant (974 to end residues) assessed as residual activity at 10 uM using KKKGQEEEYVFIE as substrate measured after 40 mins in presence of [gamma33P]ATP by scintillation counting method
[8] = target: MAP kinase-activated protein kinase 3 (Homo sapiens) (UniProt Q16644); assay: Inhibition of recombinant human MAPKAPK3 (2 to end residues) assessed as residual activity at 10 uM using KKLNRTLSVA as substrate measured after 40 mins in presence of [gamma33P]ATP by scintillation counting method
[9] = system: CDK18/Cyclin Y (Homo sapiens), Q07002+Q8ND76 [T166M]; assay: Inhibition of recombinant full length human cyclinY/CDK18 T166M mutant assessed as residual activity at 10 uM using YRRAAVPPSPSLS as substrate measured after 40 mins in presence of [gamma33P]ATP by scintillation counting method; assay type: protein-complex assay
[10] = target: Ephrin type-B receptor 3 (Homo sapiens) (UniProt P54753); assay: Inhibition of recombinant human EphB3 (599 to 920 residues) assessed as residual activity at 10 uM using poly (Glu, Tyr) 4:1 as substrate measured after 40 mins in presence of [gamma33P]ATP by scintillation counting method
[11] = target: Dual specificity protein kinase CLK3 (Homo sapiens) (UniProt P49761); assay: Inhibition of recombinant full-length human CLK3 assessed as residual activity at 10 uM using ERMRPRKRQGSVRRRV as substrate measured after 40 mins in presence of [gamma33P]ATP by scintillation counting method
SW-620 = assay: Cell cycle arrest in human SW620 cells assessed as up regulation of CDK1 expression up to 150 nM after 24 hrs by Western blot analysis; assay type: functional, cell-based
[12] = Toxicity in nude BALB/c mouse xenografted with human HCT116 cells assessed as change in body weight at 80 mg/kg, po administered once daily for 4 weeks measured every 3 days during compound dosing; assay type: organism-based; conditions: in vivo
[13] = system: Discoidin domain-containing receptor 2 (Homo sapiens), Q16832 [UNDEFINED MUTATION]; assay: Inhibition of recombinant human DDR2 S642A mutant (467 to end residues) assessed as residual activity at 10 uM using KKSRGDYMTMQIG as substrate measured after 40 mins in presence of [gamma33P]ATP by scintillation counting method
[14] = target: Dual specificity tyrosine-phosphorylation-regulated kinase 2 (Homo sapiens) (UniProt Q92630); assay: Inhibition of recombinant full-length human DYRK2 assessed as residual activity at 10 uM using casein as substrate measured after 40 mins in presence of [gamma33P]ATP by scintillation counting method
[15] = target: Glycogen synthase kinase-3 alpha (Homo sapiens) (UniProt P49840); assay: Inhibition of recombinant human GSK3alpha (2 to end residues) assessed as residual activity at 10 uM using phospho GS2 peptide as substrate measured after 40 mins in presence of [gamma33P]ATP by scintillation counting method
[16] = target: LIM domain kinase 2 (Homo sapiens) (UniProt P53671); assay: Inhibition of recombinant human LIMK2 assessed as residual activity at 10 uM by radiometric method
[17] = target: Mitogen-activated protein kinase kinase kinase 9 (Homo sapiens) (UniProt P80192); assay: Inhibition of recombinant human MLK1 (134 to 414 residues) assessed as residual activity at 10 uM using casein as substrate measured after 40 mins in presence of [gamma33P]ATP by scintillation counting method
[18] = target: Serine/threonine-protein kinase 24 (Homo sapiens) (UniProt Q9Y6E0); assay: Inhibition of recombinant human MST3 (1 to 304 residues) assessed as residual activity at 10 uM using ERMRPRKRQGSVRRRV as substrate measured after 40 mins in presence of [gamma33P]ATP by scintillation counting method
[19] = target: Serine/threonine-protein kinase MARK2 (Homo sapiens) (UniProt Q7KZI7); assay: Inhibition of recombinant full-length human PAR1Balpha assessed as residual activity at 10 uM using KKKVSRSGLYRSPSMPENLNRPR as substrate measured after 40 mins in presence of [gamma33P]ATP by scintillation counting method
[20] = target: Serine/threonine-protein kinase PRP4 homolog (Homo sapiens) (UniProt Q13523); assay: Inhibition of human PRP4 (663 to end residues) using casein as substrate measured after 40 mins in presence of [gamma33P]ATP by scintillation counting method; set-up: scale not given: the % may be the effect or the level left
[21] = target: Receptor-interacting serine/threonine-protein kinase 1 (Homo sapiens) (UniProt Q13546); assay: Inhibition of human RIPK1 (8 to 322 residues) using myelin basic protein as substrate measured after 120 mins in presence of [gamma33P]ATP by scintillation counting method; set-up: scale not given: the % may be the effect or the level left
[22] = target: Serine/threonine-protein kinase ULK3 (Homo sapiens) (UniProt Q6PHR2); assay: Inhibition of recombinant full-length human ULK3 assessed as residual activity at 10 uM using casein as substrate measured after 40 mins in presence of [gamma33P]ATP by scintillation counting method
HCT-116 = assay: Induction of apoptosis in human HCT116 cells assessed as late apoptotic cells at 100 nM measured after 48 hrs by Annexin V-FITC/propidium iodide staining-based flow cytometry (reference value: 3.87%); assay type: functional

Sequence of Mitogen-activated protein kinase 13 (Homo sapiens) (O15264 whole entry): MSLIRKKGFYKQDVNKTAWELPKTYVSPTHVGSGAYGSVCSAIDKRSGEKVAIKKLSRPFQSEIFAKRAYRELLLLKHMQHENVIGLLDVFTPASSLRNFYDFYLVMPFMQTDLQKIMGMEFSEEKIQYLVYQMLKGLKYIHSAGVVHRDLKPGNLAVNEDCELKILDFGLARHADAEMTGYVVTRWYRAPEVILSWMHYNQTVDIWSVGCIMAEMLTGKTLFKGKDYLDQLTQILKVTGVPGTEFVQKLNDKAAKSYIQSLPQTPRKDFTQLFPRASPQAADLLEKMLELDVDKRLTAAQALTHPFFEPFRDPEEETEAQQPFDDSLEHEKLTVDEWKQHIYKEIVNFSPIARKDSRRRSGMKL
Sequence of Serine/threonine-protein kinase ULK3 (Homo sapiens) (Q6PHR2 whole entry): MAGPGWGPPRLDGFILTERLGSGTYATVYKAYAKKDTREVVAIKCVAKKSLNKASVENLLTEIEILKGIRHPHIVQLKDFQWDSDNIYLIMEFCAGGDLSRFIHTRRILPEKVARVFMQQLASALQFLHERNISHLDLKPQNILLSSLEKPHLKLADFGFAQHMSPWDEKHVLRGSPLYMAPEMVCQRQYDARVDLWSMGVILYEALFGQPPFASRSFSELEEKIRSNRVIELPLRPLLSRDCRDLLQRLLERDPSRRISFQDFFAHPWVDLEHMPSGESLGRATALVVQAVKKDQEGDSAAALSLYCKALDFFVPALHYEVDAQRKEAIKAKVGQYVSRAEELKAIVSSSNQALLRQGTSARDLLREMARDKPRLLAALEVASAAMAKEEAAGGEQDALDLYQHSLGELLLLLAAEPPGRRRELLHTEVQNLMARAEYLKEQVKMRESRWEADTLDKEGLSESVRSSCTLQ
Sequence of Protein kinase C iota type (Homo sapiens) (P41743 whole entry, the tested form may be a part): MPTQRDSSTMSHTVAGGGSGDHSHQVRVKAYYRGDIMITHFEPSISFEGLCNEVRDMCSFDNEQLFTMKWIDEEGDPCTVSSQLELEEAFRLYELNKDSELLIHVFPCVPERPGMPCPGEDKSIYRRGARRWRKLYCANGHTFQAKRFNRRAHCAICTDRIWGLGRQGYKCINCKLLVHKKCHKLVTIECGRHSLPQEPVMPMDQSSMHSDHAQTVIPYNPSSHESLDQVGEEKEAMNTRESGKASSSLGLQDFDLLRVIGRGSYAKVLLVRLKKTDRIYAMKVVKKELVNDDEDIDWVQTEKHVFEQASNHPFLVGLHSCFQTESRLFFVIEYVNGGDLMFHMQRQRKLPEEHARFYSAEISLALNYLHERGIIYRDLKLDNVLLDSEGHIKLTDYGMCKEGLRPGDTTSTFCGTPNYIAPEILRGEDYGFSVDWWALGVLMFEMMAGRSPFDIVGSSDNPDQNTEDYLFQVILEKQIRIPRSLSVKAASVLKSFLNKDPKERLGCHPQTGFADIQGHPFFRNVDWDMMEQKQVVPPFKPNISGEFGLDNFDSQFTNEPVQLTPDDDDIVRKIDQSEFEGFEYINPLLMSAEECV
Sequence of Serine/threonine-protein kinase MARK2 (Homo sapiens) (Q7KZI7 whole entry): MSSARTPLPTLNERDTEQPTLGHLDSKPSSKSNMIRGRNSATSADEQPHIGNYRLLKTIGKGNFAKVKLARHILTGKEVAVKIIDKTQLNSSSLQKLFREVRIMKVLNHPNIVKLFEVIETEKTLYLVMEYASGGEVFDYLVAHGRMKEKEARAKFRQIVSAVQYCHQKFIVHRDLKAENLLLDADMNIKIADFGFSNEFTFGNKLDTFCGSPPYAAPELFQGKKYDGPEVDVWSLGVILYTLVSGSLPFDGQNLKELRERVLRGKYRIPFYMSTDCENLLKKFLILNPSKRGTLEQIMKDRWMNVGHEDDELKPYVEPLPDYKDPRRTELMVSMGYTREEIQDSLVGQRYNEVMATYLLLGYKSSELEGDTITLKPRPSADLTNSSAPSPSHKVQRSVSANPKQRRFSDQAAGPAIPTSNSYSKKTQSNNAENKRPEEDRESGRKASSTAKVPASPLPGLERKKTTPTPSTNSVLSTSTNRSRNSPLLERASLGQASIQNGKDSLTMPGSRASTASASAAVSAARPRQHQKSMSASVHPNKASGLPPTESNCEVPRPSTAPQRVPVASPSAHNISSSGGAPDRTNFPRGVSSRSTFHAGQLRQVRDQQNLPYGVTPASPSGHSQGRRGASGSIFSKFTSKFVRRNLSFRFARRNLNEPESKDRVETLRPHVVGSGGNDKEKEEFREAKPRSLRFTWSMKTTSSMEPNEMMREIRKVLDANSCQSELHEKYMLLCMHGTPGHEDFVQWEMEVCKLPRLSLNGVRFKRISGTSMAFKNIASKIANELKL
Sequence of TRAF2 and NCK-interacting protein kinase (Homo sapiens) (Q9UKE5 whole entry, looked up, the tested form may be a part): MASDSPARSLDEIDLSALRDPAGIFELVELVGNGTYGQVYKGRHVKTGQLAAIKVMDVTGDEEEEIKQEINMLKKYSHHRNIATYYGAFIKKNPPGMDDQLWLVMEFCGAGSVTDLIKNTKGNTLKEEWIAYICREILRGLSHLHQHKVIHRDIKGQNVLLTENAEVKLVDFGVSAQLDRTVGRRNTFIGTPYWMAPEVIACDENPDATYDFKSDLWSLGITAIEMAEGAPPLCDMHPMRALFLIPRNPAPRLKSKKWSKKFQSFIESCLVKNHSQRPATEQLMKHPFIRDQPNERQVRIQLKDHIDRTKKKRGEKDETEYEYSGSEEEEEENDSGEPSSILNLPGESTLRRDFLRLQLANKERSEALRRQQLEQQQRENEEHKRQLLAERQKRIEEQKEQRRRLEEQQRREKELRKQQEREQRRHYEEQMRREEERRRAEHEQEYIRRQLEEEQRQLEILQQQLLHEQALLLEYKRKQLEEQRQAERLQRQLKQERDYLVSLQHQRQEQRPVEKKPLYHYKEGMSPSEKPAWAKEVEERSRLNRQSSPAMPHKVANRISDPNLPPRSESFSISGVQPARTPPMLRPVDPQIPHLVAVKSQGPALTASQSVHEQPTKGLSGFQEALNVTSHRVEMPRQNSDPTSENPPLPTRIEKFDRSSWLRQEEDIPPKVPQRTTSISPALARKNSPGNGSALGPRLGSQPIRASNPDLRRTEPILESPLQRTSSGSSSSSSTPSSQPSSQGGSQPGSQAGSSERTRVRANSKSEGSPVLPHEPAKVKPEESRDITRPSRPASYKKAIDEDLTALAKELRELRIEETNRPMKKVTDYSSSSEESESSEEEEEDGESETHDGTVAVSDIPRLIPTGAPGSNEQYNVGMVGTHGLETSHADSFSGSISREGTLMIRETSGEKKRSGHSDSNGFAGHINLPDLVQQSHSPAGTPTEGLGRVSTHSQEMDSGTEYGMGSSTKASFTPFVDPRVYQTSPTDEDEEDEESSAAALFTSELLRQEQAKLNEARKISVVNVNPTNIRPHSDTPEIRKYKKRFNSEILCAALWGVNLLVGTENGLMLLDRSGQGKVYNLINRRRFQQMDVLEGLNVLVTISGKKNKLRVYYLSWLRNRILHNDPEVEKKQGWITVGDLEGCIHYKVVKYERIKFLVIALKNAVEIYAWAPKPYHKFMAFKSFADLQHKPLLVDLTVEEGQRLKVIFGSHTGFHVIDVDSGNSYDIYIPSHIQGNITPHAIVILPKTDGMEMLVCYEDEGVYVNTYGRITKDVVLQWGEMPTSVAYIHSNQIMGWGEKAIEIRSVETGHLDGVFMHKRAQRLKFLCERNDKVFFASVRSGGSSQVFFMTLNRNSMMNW
Sequence of High affinity nerve growth factor receptor (Homo sapiens) (P04629 33-796 limits assumed): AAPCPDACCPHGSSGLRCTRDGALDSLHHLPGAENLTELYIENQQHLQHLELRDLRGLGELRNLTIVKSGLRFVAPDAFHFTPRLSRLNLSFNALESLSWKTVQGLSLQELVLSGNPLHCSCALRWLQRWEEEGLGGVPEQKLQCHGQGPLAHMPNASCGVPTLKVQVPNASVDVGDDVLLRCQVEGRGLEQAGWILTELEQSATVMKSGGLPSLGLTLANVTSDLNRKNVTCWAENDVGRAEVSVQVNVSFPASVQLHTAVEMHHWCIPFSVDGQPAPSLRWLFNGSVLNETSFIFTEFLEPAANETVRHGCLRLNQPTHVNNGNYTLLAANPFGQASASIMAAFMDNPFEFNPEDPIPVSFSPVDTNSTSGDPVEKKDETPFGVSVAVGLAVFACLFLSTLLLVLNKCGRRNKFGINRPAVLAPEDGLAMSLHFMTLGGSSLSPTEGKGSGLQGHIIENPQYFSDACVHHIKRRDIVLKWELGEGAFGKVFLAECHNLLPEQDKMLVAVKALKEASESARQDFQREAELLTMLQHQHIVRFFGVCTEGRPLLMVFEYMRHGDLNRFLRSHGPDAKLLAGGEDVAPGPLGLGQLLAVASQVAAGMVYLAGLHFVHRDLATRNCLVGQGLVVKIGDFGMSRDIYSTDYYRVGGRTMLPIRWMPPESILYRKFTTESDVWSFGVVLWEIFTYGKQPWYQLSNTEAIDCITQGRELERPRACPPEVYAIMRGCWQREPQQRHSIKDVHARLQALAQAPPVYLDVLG
Sequence of Receptor-interacting serine/threonine-protein kinase 1 (Homo sapiens) (Q13546 whole entry, the tested form may be a part): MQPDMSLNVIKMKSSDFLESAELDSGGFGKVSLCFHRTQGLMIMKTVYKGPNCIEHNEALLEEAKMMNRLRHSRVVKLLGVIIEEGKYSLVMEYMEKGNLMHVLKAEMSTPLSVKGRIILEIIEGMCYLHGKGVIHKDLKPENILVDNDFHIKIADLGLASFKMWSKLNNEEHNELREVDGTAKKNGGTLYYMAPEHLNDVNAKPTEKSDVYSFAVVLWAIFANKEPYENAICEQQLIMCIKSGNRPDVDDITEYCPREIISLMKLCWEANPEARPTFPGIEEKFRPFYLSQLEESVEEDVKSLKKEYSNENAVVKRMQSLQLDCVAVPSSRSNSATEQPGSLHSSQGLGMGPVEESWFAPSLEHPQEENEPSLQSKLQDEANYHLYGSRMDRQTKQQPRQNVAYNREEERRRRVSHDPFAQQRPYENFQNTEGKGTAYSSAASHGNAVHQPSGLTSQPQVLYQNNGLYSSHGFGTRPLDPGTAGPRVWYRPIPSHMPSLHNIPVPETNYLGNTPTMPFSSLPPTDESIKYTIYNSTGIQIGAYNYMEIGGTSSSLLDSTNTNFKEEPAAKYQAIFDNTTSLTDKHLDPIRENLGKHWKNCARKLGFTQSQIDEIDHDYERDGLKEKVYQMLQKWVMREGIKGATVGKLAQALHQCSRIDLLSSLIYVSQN

Cc1cc(C)c(CNc2nc(Cl)nc3c2ncn3C2CCCC2)c(=O)[nH]1
Activity [1]: 92%
Activity [2]: 108%
Activity [3]: 96.5%
Activity [4]: 109%
Activity [5]: 105%
Activity [6]: 105%
Activity [7]: 105%
Activity [8]: 106%
Activity [9]: 101%
Activity [10]: 110%
Activity [11]: 116%
Activity (SW-620): Active
Activity [12]: Non-Toxic
Activity [13]: 97%
Activity [14]: 113%
Activity [15]: 102%
Activity [16]: 106%
Activity [17]: 104%
Activity [18]: 110%
Activity [19]: 95.5%
Activity [20]: 93%
Activity [21]: 92%
Activity [22]: 102%
Activity (HCT-116): 42.6%

Reference: ChEMBL document CHEMBL4311992, “Discovery of 3-(((9H-purin-6-yl)amino)methyl)-4,6-dimethylpyridin-2(1H)-one derivatives as novel tubulin polymerization inhibitors for treatment of cancer” (Eur J Med Chem, 2019)
